One experiment deals with Hep-G2 cells. The experiment can be described thus: Cell Culture Cholesterol Biosynthesis Assay. The class given is cell-based. To be noted: Homo sapiens, racemic mixture. The protocol: When the cells were 2/3 confluent, they were fed MEM containing Earles salts and delipidated serum protein (DLP) at 5 mg/mL and then incubated for a period of 24 h. DLP was prepared according to the procedure of Rothblat, et. al. ([…]., Howard, B. V. In Vitro (Rockville), 12, 1976, 554-557). The DLP medium was then removed and 3.3 mL of media containing the drug indicated was added. […] Fatty acids were extracted and digitonin precipitable sterols were recovered according the procedure of Kanduch and Saucier (Kandutch, A. A., Saucier, S. E. Journal of Biological Chemistry, 244, 1969, 2299-2305). To adjust for cell number per flask, the cholesterol synthesized was normalized to the fatty acids synthesized and results were expressed as percent inhibition vs. control.

For the next experiment, the target named is HMG-CoA reductase. The experiment can be described thus: HMG-CoA Reductase Isolation And Assay (ammonium sulfate precipitated enzyme from rat liver). Type of experiment: biochemical, male Wistar rats. The note with it: racemic mixture. The protocol: Livers were harvested from male Wistar rats (250 g) following a five day feeding with powdered chow containing 2% cholestyramine. Ammonium sulfate precipitated HMG-CoA reductase was prepared from these livers according to the method of Heller, et. al. (Heller, R. A. Shrewsbury, M. A. Journal of Biological Chemistry, 251, 1976, 3815-3822). HMG-CoA reductase activity was measured using a modification of the procedure of Edwards, et. al. (Edwards, P. A., Lemongello, […]. Journal of Lipid Research, 20, 1979, 40-46). The effects of compounds on HMG-CoA reductase activity were determined by combining the compound with the enzyme and preincubating for 10 minutes prior to addition of the substrate […].

This passage reports IC50 results from patent US5250561A, “Tetrahydroindazole, tetrahydrocyclopentapyrazole, and hexahydrocycloheptapyrazole compounds and their use as HMG-COA reductase inhibitors” (Ortho Pharmaceutical Corporation, priority 1992, dated 1993).

Molecules are shown by their SMILES. Where a name gives a salt, the structure may show the parent alone.

One may read the IC50 as the concentration that inhibits the measured activity by half. For `CCOC(=O)C[C@H](O)C[C@H](O)/C=C/c1c2c(nn1-c1ccc(F)cc1)C(Cc1ccccc1)CCC2` (mixture of isomers) [Compound 47, Ethyl (E)-(3RS,5SR)-7-[7-benzyl-2-(4-fluorophenyl)-4,5,6,7-tetrahydro-2H-indazol-3-yl]-3,5-dihydroxy-6-heptenoate], the half-maximal inhibitory concentration (IC50) in the experiment on Hep-G2 cells (HepG2, Table IV) was determined as 290 nM; on HMG-CoA reductase (Table IV), 120 nM.

In the case of `O=C1C[C@H](O)C[C@@H](/C=C/c2c3c(nn2-c2ccc(F)cc2)C(Cc2ccccc2)CCC3)O1` (mixture of isomers) [Compound 79, (E)-(4RS,6SR)-6-[2-[7-Benzyl-2-(4-fluorophenyl)-4,5,6,7-tetrahydro-2H-indazol-3-yl]ethenyl]-4-hydroxy-3,4,5,6-tetrahydro-2H-pyran-2-one], the IC50 in the experiment on Hep-G2 cells (HepG2, Table V) turned out to be 260 nM; on HMG-CoA reductase (Table V) it was 750 nM.

With `O=C(O)C[C@H](O)C[C@H](O)/C=C/c1nn(-c2ccc(F)cc2)c2c1CCC2` (relative stereo) [Compound 2], the IC50 on HMG-CoA reductase (Table II) turned out to be 100000 nM.

As for `O=C(O)C[C@H](O)C[C@H](O)/C=C/c1nn(Cc2ccc(F)cc2)c2c1CCCCC2` (relative stereo) [Compound 9], the IC50 on HMG-CoA reductase (Table II) was found to be 100000 nM.

As to `O=C(O)C[C@H](O)C[C@H](O)/C=C/c1c2c(nn1-c1ccc(F)cc1)CCC2` (relative stereo) [Compound 10], on HMG-CoA reductase (Table III), the concentration for half-maximal inhibition (IC50) was found to be 5100 nM.

`O=C(O)C[C@H](O)C[C@H](O)/C=C/c1c2c(nn1-c1ccc(F)cc1)-c1ccccc1CC2` (relative stereo) [Compound 22]: the IC50 at HMG-CoA reductase (Table III) amounted to 13000 nM.

With `O=C(O)C[C@H](O)C[C@H](O)/C=C/c1c2c(nn1-c1ccc(F)cc1)CCCC2` (relative stereo) [Compound 25], the half-maximal inhibitory concentration (IC50) on HMG-CoA reductase (Table III) worked out at 2500 nM.

Take `O=C(O)C[C@H](O)C[C@H](O)/C=C/c1c2c(nn1-c1ccc(Cl)cc1)CCCC2` (relative stereo) [Compound 26]: the concentration for half-maximal inhibition (IC50) on HMG-CoA reductase (Table III) is 8800 nM.

Consider `C/C(=C\c1c2c(nn1-c1ccc(F)cc1)CCCC2)[C@@H](O)C[C@@H](O)CC(=O)O` (relative stereo) [Compound 27], for which, on HMG-CoA reductase (Table III), the IC50 turned out to be 2700 nM.

Regarding `O=C(O)C[C@H](O)C[C@H](O)/C=C/c1c2c(nn1-c1ccc(F)cc1)-c1ccccc1CCC2` (relative stereo) [Compound 36], the half-maximal inhibitory concentration (IC50) on HMG-CoA reductase (Table III) is 2100 nM.

As for `O=C(O)C[C@H](O)C[C@H](O)/C=C/c1c2c(nn1-c1ccc(F)cc1)CCCCC2` (relative stereo) [Compound 37], at HMG-CoA reductase (Table III), the IC50 was 3800 nM.

On to `O=C(O)C[C@H](O)C[C@H](O)/C=C/c1c2c(nn1Cc1ccc(F)cc1)CCCCC2` (relative stereo) [Compound 38], for which, on HMG-CoA reductase (Table III), the concentration for half-maximal inhibition (IC50) is 23000 nM.

For `O=C1C[C@H](O)C[C@@H](/C=C/c2c3c(nn2-c2ccc(F)cc2)CCCC3)O1` (relative stereo) [Compound 83], the 50% inhibitory concentration (IC50) on HMG-CoA reductase (Table V) is 9000 nM.

Consider `O=C(O)C[C@H](O)C[C@H](O)/C=C/c1c2c(nn1-c1ccc(F)cc1)C(Cc1ccc(-c3ccccc3)cc1)CCC2` (stereo partly drawn) [Compound 1, (E)-(3RS,5SR)-7-[7-[(1,1'-Biphenyl)-4-ylmethyl]-2-(4-fluorophenyl)-4,5,6,7-tetrahydro-2H-indazol-3-yl]-3,5-dihydroxy-6-heptenoic acid.Sodium salt.Dihydrate], for which the IC50 in the experiment with Hep-G2 cells (HepG2, Table III) is 240 nM; on HMG-CoA reductase (Table III), 2.7 nM.

Consider `O=C(O)C[C@H](O)C[C@H](O)/C=C/c1nn(-c2ccc(F)cc2)c2c1CCCC2Cc1ccc(F)cc1` (stereo partly drawn) [Compound 3], for which the IC50 with Hep-G2 cells (HepG2, Table II) amounted to 27000 nM; at HMG-CoA reductase (Table II), 31000 nM.

Consider `O=C(O)C[C@H](O)C[C@H](O)/C=C/c1nn(-c2ccc(F)cc2)c2c1CCCC2C1CCCCC1` (stereo partly drawn) [Compound 4], for which the IC50 at HMG-CoA reductase (Table II) was determined as 47000 nM.

As for `CCC1CCCc2c(/C=C/[C@@H](O)C[C@@H](O)CC(=O)O)nn(-c3ccc(F)cc3)c21` (stereo partly drawn) [Compound 5], the concentration for half-maximal inhibition (IC50) at HMG-CoA reductase (Table II) worked out at 35000 nM.

Regarding `CC1CCCc2c(/C=C/[C@@H](O)C[C@@H](O)CC(=O)O)nn(-c3ccc(F)cc3)c21` (stereo partly drawn) [Compound 6], the IC50 at HMG-CoA reductase (Table II) amounted to 100000 nM.

Take `O=C(O)C[C@H](O)C[C@H](O)/C=C/c1nn(-c2ccc(F)cc2)c2c1CCCC2CCc1ccccc1` (stereo partly drawn) [Compound 7]: the 50% inhibitory concentration (IC50) in the experiment on Hep-G2 cells (HepG2, Table II) was over 10000 nM.

Turning to `O=C(O)C[C@H](O)C[C@H](O)/C=C/c1nn(-c2ccc(F)cc2)c2c1CCCC2CC=Cc1ccccc1` (stereo partly drawn) [Compound 8], the IC50 at HMG-CoA reductase (Table II) turned out to be 3000 nM.

Regarding `O=C(O)C[C@H](O)C[C@H](O)/C=C/c1c2c(nn1-c1ccc(F)cc1)C(Cc1cccc3ccccc13)CCC2` (stereo partly drawn) [Compound 11], the half-maximal inhibitory concentration (IC50) came to 370 nM with Hep-G2 cells (HepG2, Table III) and 26 nM on HMG-CoA reductase (Table III).

With `O=C(O)C[C@H](O)C[C@H](O)/C=C/c1c2c(nn1-c1ccc(F)cc1)C(Cc1ccccc1Cl)CCC2` (stereo partly drawn) [Compound 12], the half-maximal inhibitory concentration (IC50) came to 1300 nM with Hep-G2 cells (HepG2, Table III) and 100 nM at HMG-CoA reductase (Table III).

On to `O=C(O)C[C@H](O)C[C@H](O)/C=C/c1c2c(nn1-c1ccc(F)cc1)C(Cc1ccc3ccccc3c1)CCC2` (stereo partly drawn) [Compound 13], for which the IC50 in the experiment on Hep-G2 cells (HepG2, Table III) is 330 nM; at HMG-CoA reductase (Table III), 5.6 nM.

For `COc1cccc(CC2CCCc3c2nn(-c2ccc(F)cc2)c3/C=C/[C@@H](O)C[C@@H](O)CC(=O)O)c1` (stereo partly drawn) [Compound 14], the half-maximal inhibitory concentration (IC50) is 1090 nM in the experiment on Hep-G2 cells (HepG2, Table III) and 48 nM at HMG-CoA reductase (Table III).

`COc1ccc(CC2CCCc3c2nn(-c2ccc(F)cc2)c3/C=C/[C@@H](O)C[C@@H](O)CC(=O)O)cc1OC` (stereo partly drawn) [Compound 15]: the IC50 in the experiment on Hep-G2 cells (HepG2, Table III) was 3900 nM; at HMG-CoA reductase (Table III), 168 nM.

As to `O=C(O)C[C@H](O)C[C@H](O)/C=C/c1c2c(nn1-c1ccc(F)cc1)C(Cc1ccc(Cl)cc1)CCC2` (stereo partly drawn) [Compound 16], the 50% inhibitory concentration (IC50) with Hep-G2 cells (HepG2, Table III) was 360 nM; on HMG-CoA reductase (Table III), 58 nM.

Regarding `O=C(O)C[C@H](O)C[C@H](O)/C=C/c1c2c(nn1-c1ccc(F)cc1)C(C1CCCCC1)CCC2` (stereo partly drawn) [Compound 23], the half-inhibitory concentration (IC50) on HMG-CoA reductase (Table III) amounted to 7700 nM.

Consider `CCC1CCCc2c1nn(-c1ccc(F)cc1)c2/C=C/[C@@H](O)C[C@@H](O)CC(=O)O` (stereo partly drawn) [Compound 24], for which the IC50 at HMG-CoA reductase (Table III) was found to be 1000 nM.

For the compound `CC1CCCc2c1nn(-c1ccc(F)cc1)c2/C=C/[C@@H](O)C[C@@H](O)CC(=O)O` (stereo partly drawn) [Compound 28], the IC50 at HMG-CoA reductase (Table III) was determined as 1100 nM.

Take `CCCC1CCCc2c1nn(-c1ccc(F)cc1)c2/C=C/[C@@H](O)C[C@@H](O)CC(=O)O` (stereo partly drawn) [Compound 29]: the IC50 on HMG-CoA reductase (Table III) stood at 1300 nM.

`O=C(O)C[C@H](O)C[C@H](O)/C=C/c1c2c(nn1-c1ccc(F)cc1)C(c1ccccc1)CCC2` (stereo partly drawn) [Compound 30]: at HMG-CoA reductase (Table III), the half-maximal inhibitory concentration (IC50) is 3100 nM.

For the compound `CCC(C)C1CCCc2c1nn(-c1ccc(F)cc1)c2/C=C/[C@@H](O)C[C@@H](O)CC(=O)O` (stereo partly drawn) [Compound 35], the concentration for half-maximal inhibition (IC50) at HMG-CoA reductase (Table III) was found to be 1000 nM.

For `COC(=O)C[C@H](O)C[C@H](O)/C=C/c1c2c(nn1-c1ccc(F)cc1)C(Cc1ccc3ccccc3c1)CCC2` (stereo partly drawn) [Compound 42], in the experiment with Hep-G2 cells (HepG2, Table I), the concentration for half-maximal inhibition (IC50) worked out at 365 nM.

Regarding `COC(=O)C[C@H](O)C[C@H](O)/C=C/c1c2c(nn1-c1ccc(F)cc1)C(Cc1ccc(C(C)C)cc1)CCC2` (stereo partly drawn) [Compound 43], the IC50 in the experiment on Hep-G2 cells (HepG2, Table I) was 120 nM.

As to `CCOC(=O)C[C@H](O)C[C@H](O)/C=C/c1c2c(nn1-c1ccc(F)cc1)C(Cc1ccc(Cl)cc1)CCC2` (stereo partly drawn) [Compound 60], the IC50 in the experiment on Hep-G2 cells (HepG2, Table IV) was determined as 460 nM.

Regarding `CCOC(=O)C[C@H](O)C[C@H](O)/C=C/c1c2c(nn1-c1ccc(F)cc1)C(Cc1ccc(C(C)(C)C)cc1)CCC2` (stereo partly drawn) [Compound 64], the IC50 on HMG-CoA reductase (Table IV) was found to be 30 nM.

On to `CCC(CC)CC1CCCc2c1nn(-c1ccc(F)cc1)c2/C=C/[C@@H]1C[C@@H](O)CC(=O)O1` (stereo partly drawn) [Compound 80], for which the IC50 on HMG-CoA reductase (Table V) stood at 29000 nM.

For the compound `O=C1C[C@H](O)C[C@@H](/C=C/c2c3c(nn2-c2ccc(F)cc2)C(Cc2ccc4ccccc4c2)CCC3)O1` (stereo partly drawn) [Compound 81], the IC50 in the experiment with Hep-G2 cells (HepG2, Table V) turned out to be 390 nM.
